Where two headings read alike, the source gives them in different places.
What was measured:
[1] = system: Ikaros, Aiolos, IRF4 expression in RPMI-8226 cells; experiment: western blot of Ikaros, Aiolos, IRF4 in RPMI-8226 cells; format: cell-based; settings: 3 days
RPMI-8226 [2] = experiment: apoptosis in RPMI-8226 cells; format: cell-based; settings: tazemetostat 31, 125, 500 nM + pomalidomide 3, 12.5, 50 nM, 3 days
MOLP-8 [3] = experiment: 7-day co-treatment combination model (Cell Titer Glo); settings: second agent + tazemetostat; for combinatorial effect by Loewe volumes: 7-day co-treatment, MOLP-8 t(11;14); for Loewe volume: 7 day co-treatment, MOLP-8
Experimental: (§1) Assay plates were developed for endpoint analysis using Cell Titer Glo to measure ATP content, which was used as an indicator of cell viability. DMSO concentration was kept constant throughout the assay at less than 0.2% v/v.
(§2) All cells were maintained as instructed by the supplier and cultures were maintained at 37° C. in a humidified atmosphere and 5% CO2.
(§3) Loewe volumes greater than 1 denoted synergy and volumes <−1 denoted antagonism.

LP-1 [4] = experiment: as above; settings: for combinatorial effect by Loewe volumes: 7-day co-treatment, LP-1 t(4;14)
Experimental: as §1, §2, §3

KMS-28-BM [5] = experiment: as above; settings: for IC50: KMS-28BM, 168 h, read-out: 7-day IC50; for combinatorial effect by Loewe volumes / Loewe volume: second agent + tazemetostat; for combinatorial effect by Loewe volumes: 7-day co-treatment, KMS-28-BM t(4;14); for Loewe volume: 7 day co-treatment, KMS-28-BM
Experimental: as §1, §2, §3

MM1.S [6] = experiment: as above; settings: Homo sapiens, 168 h, read-out: 7-day IC50
Experimental: as §1
(§4) Cell lines: The cell lines MI1.S and U266B1 were obtained from American Type Culture Collection (ATCC; Rockville, MD). […] All cells were maintained as instructed by the supplier and cultures were maintained at 37° C. in a humidified atmosphere and 5% CO2.
as §3

RPMI-8226 [7] = experiment: as above; settings: for Loewe volume: second agent + tazemetostat, 7 day co-treatment
Experimental: as §1, §4, §3

U266 [8] = experiment: 7 day pretreatment + 4-day co-treatment combination model (Cell Titer Glo); settings: for IC50: Homo sapiens, U-266, 96 h, read-out: 4-day IC50; for combinatorial effect by Loewe volumes: second agent + tazemetostat, 7 day pretreatment + 4-day co-treatment, U266 t(11;14)
Text: as §1
(§5) Cell lines: The cell lines MI1.S and U266B1 were obtained from American Type Culture Collection (ATCC; Rockville, MD). The cell lines LP-1, L-363 were obtained from Deutsche Sammlung von Mikroorganismen and Zellkulturen (DSMZ; Braunschweig, Germany) and the cell line KMS-28BM was obtained from Japanese Collection of Research Bioresources Cell Bank (JCRB, Osaka Japan). All cells were maintained as instructed by the supplier and cultures were maintained at 37° C. in a humidified atmosphere and 5% CO2.
as §3

MOLP-8 [9] = experiment: as above; settings: second agent + tazemetostat, MOLP-8 t(11;14)
Experimental: as §1, §2, §3

LP-1 [10] = experiment: as above; settings: for IC50: Homo sapiens, LP-1, 96 h, read-out: 4-day IC50; for combinatorial effect by Loewe volumes: second agent + tazemetostat, 7 day pretreatment + 4-day co-treatment, LP-1 t(4;14)
Text: as §1, §5, §3

KMS-28-BM [11] = experiment: as above; settings: for IC50: KMS-28BM, 96 h, read-out: 4-day IC50; for Loewe volume / combinatorial effect by Loewe volumes: second agent + tazemetostat, 7 day pretreatment + 4-day co-treatment; for Loewe volume: KMS-28-BM; for combinatorial effect by Loewe volumes: KMS-28-BM t(4;14)
Experimental: as §1, §2, §3

L-363 [12] = experiment: as above; settings: for IC50: Homo sapiens, L-363, 96 h, read-out: 4-day IC50; for combinatorial effect by Loewe volumes: second agent + tazemetostat, 7 day pretreatment + 4-day co-treatment, L-363 t(20;22)
Text: as §1, §5, §3

MM1.S [13] = experiment: as above; settings: Homo sapiens, MM1.S, 96 h, read-out: 4-day IC50
Text: as §1, §5, §3

[14] = system: multiple myeloma cell lines and primary patient samples; settings: reported in the literature; cited from earlier work
Jeko-1 [15] = experiment: mantle cell lymphoma 7 day co-treatment model; format: cell-based
U266 [16] = system: U266
Experimental: as §1, §4, §3

L-363 [17] = system: L-363
Experimental: as §1, §4, §3

Jeko-1 [18] = experiment: mantle cell lymphoma 7 day pretreatment + 4-day co-treatment model (Cell Titer Glo)
Text: Cells were then co-treated in triplicate with a second compound, 3-fold serially diluted for additional 4 days. After this time, plates were developed for endpoint analysis using Cell Titer Glo to measure ATP content, which is used as an indicator of cell viability.
A Loewe volume greater than 1 denoted synergy. A Loewe volume between −1 and 1 denoted additivity, and a negative Loewe volume of less than −1, denoted antagonism.

[19] = second agent + tazemetostat, 7 day co-treatment
[20] = second agent + tazemetostat, 7 day pretreatment + 4-day co-treatment, Jeko-1

With `Nc1cccc2c1C(=O)N(C1CCC(=O)NC1=O)C2=O` (centres unmarked) [Pomalidomide, pomalidomide] the “IRF4 expression, combined treatment” value ([1]; pomalidomide + tazemetostat vs either alone) was “enhances repression of IRF4”, the “Ikaros and Aiolos levels” value ([1]; single agent 12.5, 50 or 200 nM) was “results in Ikaros and Aiolos degradation” and the apoptosis (RPMI-8226 [2]) was “enhanced apoptosis”. For the same compound, the “combinatorial effect by Loewe volumes” value (MOLP-8 [3]) was “S (Synergy)”, the Loewe volume (MOLP-8 [3]) was 5.73 and the “combinatorial effect by Loewe volumes” value (LP-1 [4]; second agent + tazemetostat) was “S (Synergy)”. The IC50 (KMS-28-BM [5]) was 100 nM, the “combinatorial effect by Loewe volumes” value (KMS-28-BM [5]) was “S (Synergy)” and the Loewe volume (KMS-28-BM [5]) was 7.65. For the same compound, the IC50 (MM1.S [6]) was 35.2 nM, the “curve shift analysis of combination” value (RPMI-8226 [7]; pomalidomide + tazemetostat, 7-day combination assay (FIG. 8)) was “synergy” and the Loewe volume (RPMI-8226 [7]) was 3.9. For the same compound, the IC50 (U266 [8]) was > 10000 nM, the “combinatorial effect by Loewe volumes” value (U266 [8]) was “S (Synergy)” and the “combinatorial effect by Loewe volumes” value (MOLP-8 [9]) was “S (Synergy)”. For the same compound, the IC50 (LP-1 [10]) was 106 nM, the “combinatorial effect by Loewe volumes” value (LP-1 [10]) was “S (Synergy)” and the IC50 (KMS-28-BM [11]) was 2540 nM. For the same compound, the Loewe volume (KMS-28-BM [11]) was 6.37, the “combinatorial effect by Loewe volumes” value (KMS-28-BM [11]) was “S (Synergy)” and the IC50 (L-363 [12]) was 69 nM. The “combinatorial effect by Loewe volumes” value (L-363 [12]) was “S (Synergy)” and the IC50 (MM1.S [13]) was 47 nM.
For `CCCc1cc(C)[nH]c(=O)c1CNC(=O)c1cc(-c2ccnc(N3CCN(C)CC3)c2)cc2c1cnn2C(C)C` [GSK343], the “growth of multiple myeloma cell lines and primary patient samples” value [14] is listed as “inhibited”.
In the case of `C[C@@H]1C[C@H]2[C@@H]3CCC4=CC(=O)C=C[C@]4(C)[C@@]3(F)[C@@H](O)C[C@]2(C)[C@@]1(O)C(=O)CO` [Dexamethasone, dexamethasone], the IC50 (Jeko-1 [15]; Homo sapiens, 168 h, second agent alone, 7 day co-treatment model) is reported as 780 nM, the “Best CI” value (Jeko-1 [15]; [19]) is reported as 0.16 and the “Bliss Volume” value (Jeko-1 [15]; [19]) is reported as 2.96. For the same compound, the “HSA Volume” value (Jeko-1 [15]; [19]) was 5.19, the “Loewe Volume” value (Jeko-1 [15]; [19]) was 4.32 and the “Synergy Score” value (Jeko-1 [15]; [19]) was 4.36. For the same compound, the IC50 (U266 [16]) was > 10000 nM, the IC50 (L-363 [17]) was 3.5 nM and the “combinatorial effect by Loewe volumes” value (MOLP-8 [3]) was “S (Synergy)”. For the same compound, the Loewe volume (MOLP-8 [3]) was 3.61, the IC50 (LP-1 [4]; Homo sapiens, LP-1, 168 h, read-out: 7-day IC50) was 5 nM and the “combinatorial effect by Loewe volumes” value (LP-1 [4]; second agent + tazemetostat) was “S (Synergy)”. For the same compound, the Loewe volume (LP-1 [4]; second agent + tazemetostat, 7 day co-treatment, LP-1) was 4.79, the IC50 (KMS-28-BM [5]) was 2.7 nM and the “combinatorial effect by Loewe volumes” value (KMS-28-BM [5]) was “S (Synergy)”. For the same compound, the Loewe volume (KMS-28-BM [5]) was 4.34, the IC50 (MM1.S [6]) was 7 nM and the Loewe volume (RPMI-8226 [7]) was 1.73. For the same compound, the IC50 (U266 [8]) was > 10000 nM, the “combinatorial effect by Loewe volumes” value (U266 [8]) was “A (Additive)” and the “combinatorial effect by Loewe volumes” value (MOLP-8 [9]) was “S (Synergy)”. For the same compound, the IC50 (LP-1 [10]) was 4 nM, the “combinatorial effect by Loewe volumes” value (LP-1 [10]) was “S (Synergy)” and the IC50 (KMS-28-BM [11]) was 6 nM. For the same compound, the Loewe volume (KMS-28-BM [11]) was 2.45, the “combinatorial effect by Loewe volumes” value (KMS-28-BM [11]) was “S (Synergy)” and the IC50 (L-363 [12]) was 7 nM. For the same compound, the “combinatorial effect by Loewe volumes” value (L-363 [12]) was “A (Additive)”, the IC50 (MM1.S [13]) was 12 nM and the IC50 (Jeko-1 [18]; Homo sapiens, JeKo-1, 96 h, read-out: Second agent IC50) was > 10000 nM. The “Best CI” value (Jeko-1 [18]; [20]) was 0.22, the “Bliss Volume” value (Jeko-1 [18]; [20]) was 4.48 and the “HSA Volume” value (Jeko-1 [18]; [20]) was 7.04. The “Loewe Volume” value (Jeko-1 [18]; [20]) was 6.91 and the “Synergy Score” value (Jeko-1 [18]; [20]) was 6.33.

From patent publication US20240293418A1, “COMBINATION THERAPY FOR TREATING CANCER” (Epizyme, Inc., priority 2016, published 2024)
